Assay results taken from patent US7687620B2, “[1,4]diazepino[6,7,1-IJ]quinoline derivatives as antipsychotic and antiobesity agents” (Wyeth LLC, priority 2002, dated 2010).
Where a name gives a salt, the structure may show the parent alone. Read-outs that look alike come from different tables or passages of the source.

Assays:
[1] = target: T1, human 5-hydroxytryptamine2C (h5HT2C) receptor (Homo sapiens, UniProt P28335); test: 5HT2C receptor binding ([125I]DOI displacement, CHO cell membranes)
T1 construct: expressed in transfected cells; host or cells: CHO (Chinese Hamster Ovary) cells; membrane preparation
T1 sequence (P28335 33-458): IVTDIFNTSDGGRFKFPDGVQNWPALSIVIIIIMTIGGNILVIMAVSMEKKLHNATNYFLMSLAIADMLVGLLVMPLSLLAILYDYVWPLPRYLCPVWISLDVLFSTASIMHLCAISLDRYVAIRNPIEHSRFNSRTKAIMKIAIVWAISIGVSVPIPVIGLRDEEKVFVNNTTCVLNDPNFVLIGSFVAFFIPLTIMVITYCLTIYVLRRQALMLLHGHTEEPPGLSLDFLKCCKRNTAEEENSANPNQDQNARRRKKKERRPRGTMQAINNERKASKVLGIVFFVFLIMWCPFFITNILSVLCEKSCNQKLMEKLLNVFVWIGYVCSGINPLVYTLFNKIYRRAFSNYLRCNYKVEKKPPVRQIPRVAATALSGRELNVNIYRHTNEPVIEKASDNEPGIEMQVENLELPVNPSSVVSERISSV

human 5-HT2C receptor = target: T2, human 5-HT2C receptor (Homo sapiens, UniProt P28335); test: Calcium mobilization in response to 5-HT2C receptor agonists (FLIPR, CHO cells); format: cell-based; details: for Emax: CHO, read-out: 5-HT2C Function Emax (%) (5-HT, 100%); for EC50: calcium mobilization, CHO cells stably expressing human 5-HT2C, read-out: 5-HT2C Function EC50
T2 sequence (P28335 33-458): T1 sequence (P28335 33-458)

Row | SMILES | Ki [1] | further results
1 | c1cc2c3c(c1)C1CCCC1CN3CCNC2 (single isomer, unassigned; (-)) [Example 4, (−)-4,5,6,7,9,9a10,11,12,12a-decahydrocyclopenta[c][1,4]diazepino[6,7,1-ij]quinoline] | 3 nM | Emax (human 5-HT2C receptor): 100%; EC50 (human 5-HT2C receptor): 8 nM
2 | c1cc2c3c(c1)C1CCCCC1CN3CCNC2 (stereo not shown) [Example 6, 4,5,6,7,9a,10,11,12,13,13a-decahydro-9H-[1,4]diazepino[6,7,1-de]phenanthridine hydrochloride] | 24 nM | Emax (human 5-HT2C receptor): 60%; EC50 (human 5-HT2C receptor): 65 nM
3 | c1cc2c3c(c1)C1CCCCCC1CN3CCNC2 (stereo not shown) [Example 8, 4,5,6,7,9,9a,10,11,12,13,14,14a-dodecahydrocyclohepta[c][1,4]diazepino[6,7,1-ij]quinoline] | 13 nM | Emax (human 5-HT2C receptor): 70%; EC50 (human 5-HT2C receptor): 261 nM
4 | c1cc2c3c(c1)[C@H]1CCCCC[C@H]1CN3CCNC2 [Example 10, (9aR,14aS)-4,5,6,7,9,9a10,11,12,13,14,14a-dodecahydrocyclohepta[c][1,4]diazepino[6,7,1-ij]quinoline hydrochloride] | 56 nM | –
5 | c1cc2c3c(c1)[C@@H]1CCCCC[C@@H]1CN3CCNC2 [Example 12, (9aS,14aR)-4,5,6,7,9,9a,10,11,12,13,14,14a-dodecahydrocyclohepta[c][1,4]diazepino[6,7,1-ij]quinoline hydrochloride] | 117 nM | –
6 | Brc1cc2c3c(c1)C1CCCCCC1CN3CCNC2 (stereo not shown) [Example 16, 2-bromo-4,5,6,7,9,9a,10,11,12,13,14,14a-dodecahydrocyclohepta[c][1,4]diazepino[6,7,1-ij]quinoline hydrochloride] | 2300 nM | –
7 | Clc1cc2c3c(c1)C1CCCCCC1CN3CCNC2 (stereo not shown) [Example 20, 2-chloro-4,5,6,7,9,9a,10,11,12,13,14,14a-dodecahydrocyclohepta[c][1,4]diazepino[6,7,1-ij]quinoline hydrochloride] | 373 nM | –
8 | c1ccc(-c2cc3c4c(c2)C2CCCC2CN4CCNC3)cc1 (stereo not shown) [Example 22, 2-phenyl-4,5,6,7,9,9a,10,11,12,12a-decahydrocyclopenta[c][1,4]diazepino[6,7,1-ij]quinoline hydrochloride] | 88 nM | –
9 | COc1cc2c3c(c1)C1CCCC1CN3CCNC2 (stereo not shown) [Example 24, 2-methoxy-4,5,6,7,9,9a,10,11,12,12a-decahydrocyclopenta[c][1,4]diazepino[6,7,1-ij]quinoline hydrochloride] | 199 nM | –
10 | Fc1ccc2c3c1C1CCCC1CN3CCNC2 (stereo not shown) [Example 26, 1-fluoro-4,5,6,7,9,9a,10,11,12,12a-decahydrocyclopenta[c][1,4]diazepino[6,7,1-ij]quinoline hydrochloride] | 20 nM | –
11 | Fc1ccc2c3c1C1CCCCCC1CN3CCNC2 (stereo not shown) [Example 28, 1-fluoro-4,5,6,7,9,9a,10,11,12,13,14,14a-dodecahydrocyclohepta[c][1,4]diazepino[6,7,1-ij]quinoline hydrochloride] | 169 nM | –
12 | FC(F)(F)c1ccc2c3c1C1CCCC1CN3CCNC2 (stereo not shown) [Example 30, 1-(trifluoromethyl)-4,5,6,7,9,9a,10,11,12,12a-decahydrocyclopenta[c][1,4]diazepino[6,7,1-ij]quinoline hydrochloride] | 59 nM | –
13 | COc1cc2c3c(c1F)C1CCCC1CN3CCNC2 (stereo not shown) [Example 32, 1-fluoro-2-methoxy-4,5,6,7,9,9a,10,11,12,12a-decahydrocyclopenta[c][1,4]diazepino[6,7,1-ij]quinoline hydrochloride] | 223 nM | –
14 | COc1cc2c3c(c1F)C1CCCCCC1CN3CCNC2 (stereo not shown) [Example 34, 1-fluoro-2-methoxy-4,5,6,7,9,9a,10,11,12,13,14,14a-dodecahydrocyclohepta[c][1,4]diazepino[6,7,1-ij]quinoline hydrochloride] | 249 nM | –
15 | CSc1ccc2c(c1)C(N1CCN(C)CC1)Cc1ccccc1S2 (stereo not shown) [Methiothepin, reference compound] | – | Ki ([1]; [125I]DOI binding, CHO membranes expressing h5HT2C, 95% confidence interval in brackets, read-out: Ki (95% confidence interval), reference compounds): 4.6 nM
16 | COc1cc(CC(C)N)c(OC)cc1I (stereo not shown) [[^125I]DOI, reference compound] | – | Kd ([1]; read-out: dissociation constant, KD of [125I]DOI at the human serotonin 5HT2C receptor, saturation binding with increasing concentrations of [125I]DOI): 0.4 nM
